Assay results taken from patent US6737383B1, “Herbicidal oxadiazolidines” (priority 1999, dated 2004).

How the values were obtained:
pigweed = experiment: Test B pre/postemergence pigweed; assay type: in vivo, Amaranthus retroflexus
Procedure, shortened: (§1)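 Response is a visual 0-to-10 score relative to untreated plants, where 0 means no effect and 10 means complete control, taken twelve to sixteen days after application. Treatments went onto soil at planting and onto foliage of 1- to 4-leaf plants, using a surfactant-containing non-phytotoxic solvent.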

sugar beet = experiment: Test B pre/postemergence sugar beet; assay type: in vivo, Beta vulgaris
Procedure, shortened: as §1

rape = experiment: Test B pre/postemergence rape; assay type: in vivo, Brassica napus
Procedure, shortened: as §1

[1] = Postemergence, Rate 62 g/ha, scale 0 to 10, 0 is no effect, 10 is complete control
[2] = Postemergence, Rate 250 g/ha, scale 0 to 10, 0 no effect, 10 complete control
[3] = Preemergence, Rate 62 g/ha, scale 0 to 10, 0 is no effect, 10 is complete control
[4] = Preemergence, Rate 125 g/ha, scale 0 to 10 (0 no effect, 10 complete control)
[5] = Preemergence, Rate 250 g/ha, scale of 0 to 10 where 0 is no effect and 10 is complete control
[6] = Preemergence, Rate 500 g/ha, scale 0 (no effect) to 10 (complete control)
[7] = Rate 125 g/ha, Postemergence, scale 0 to 10, 0 no effect, 10 complete control
[8] = Rate 500 g/ha, Postemergence, 0 to 10 scale (0 no effect, 10 complete control)
[9] = Rate 500 g/ha, Postemergence, scale 0 to 10, 0 no effect, 10 complete control
[10] = Preemergence, Rate 62 g/ha, scale 0 to 10 (0 no effect, 10 complete control)
[11] = Postemergence, Rate 125 g/ha, scale of 0 to 10 where 0 is no effect and 10 is complete control
[12] = Rate 250 g/ha, Postemergence, scale 0 to 10, 0 is no effect, 10 is complete control

Row | Structure (SMILES) | Redroot pigweed plant response rating (pigweed; [1]) | Redroot pigweed plant response rating (pigweed; [2]) | Plant response rating, Redroot pigweed (pigweed; [3]) | Plant response rating, Redroot pigweed (pigweed; [4]) | Plant response rating, Redroot pigweed (pigweed; [5]) | Redroot pigweed plant response rating (pigweed; [6]) | Redroot pigweed plant response rating (pigweed; [7]) | Sugarbeets plant response rating (sugar beet; [1]) | Sugarbeets plant response rating (sugar beet; [2]) | Plant response rating, Sugarbeets (sugar beet; [3]) | Plant response rating, Sugarbeets (sugar beet; [4]) | Plant response rating, Sugarbeets (sugar beet; [5]) | Sugarbeets plant response rating (sugar beet; [6]) | Sugarbeets plant response rating (sugar beet; [7]) | Rape plant response rating (rape; [1]) | Rape plant response rating (rape; [2]) | Plant response rating, Rape (rape; [4]) | Plant response rating, Rape (rape; [5]) | Rape plant response rating (rape; [6]) | Rape plant response rating (rape; [7]) | other results
1 | Cc1ccccc1-n1c(=O)on(C(=O)N(c2ccc(Cl)cc2)C(C)C)c1=O [Compound 41] | 0 | 3 | 0 | 1 | 1 | 7 | 0 | 0 | 0 | 0 | 0 | 0 | 0 | 0 | 0 | 0 | 0 | 0 | 0 | 0 | Redroot pigweed plant response rating (pigweed; [8]): 5; Plant response rating, Rape (rape; [3]): 0; Rape plant response rating (rape; [8]): 0
2 | CC(C)Oc1cc(-n2c(=O)on(C(=O)N(c3ccc(F)cc3)C(C)C)c2=O)c(Cl)cc1Cl [Compound 43] | 1 |  | 0 | 0 | 0 | 4 | 2 | 0 | 1 | 0 | 0 | 0 | 0 | 1 | 0 | 0 | 0 | 0 | 0 | 0 | Redroot pigweed plant response rating (pigweed; [8]): 6; Plant response rating, Rape (rape; [3]): 0
3 | CCc1ccccc1-n1c(=O)on(C(=O)N(c2ccc(F)cc2F)C(C)C)c1=O [Compound 45] | 0 | 0 | 0 | 0 | 8 | 8 | 0 | 0 | 1 | 0 | 0 | 7 | 8 | 0 | 0 | 0 | 0 | 0 | 0 | 0 | Redroot pigweed plant response rating (pigweed; [8]): 0; Plant response rating, Rape (rape; [3]): 0; Rape plant response rating (rape; [8]): 0
4 | Cc1ccccc1-n1c(=O)on(C(=O)N(c2ccc(C#N)cc2)C(C)C)c1=O [Compound 51] | 0 | 0 | 0 | 0 | 0 | 0 | 0 | 0 | 0 | 0 | 0 | 0 | 0 | 0 | 0 | 0 | 0 | 0 | 0 | 0 | Redroot pigweed plant response rating (pigweed; [9]): 0; Sugarbeets plant response rating (sugar beet; [9]): 0; Plant response rating, Rape (rape; [3]): 0; Rape plant response rating (rape; [9]): 0
5 | CCN(C(=O)n1oc(=O)n(-c2c(C)cc(C)cc2C)c1=O)C1CCCCC1 [Compound 63] | 0 | 0 |  | 0 | 0 | 0 | 0 | 0 | 2 |  | 0 | 0 | 0 | 0 | 0 | 0 | 0 | 0 |  | 0 | Redroot pigweed plant response rating (pigweed; [10]): 0; Redroot pigweed plant response rating (pigweed; [9]): 2; Sugarbeets plant response rating (sugar beet; [10]): 0; Sugarbeets plant response rating (sugar beet; [9]): 3; Rape plant response rating (rape; [10]): 0; Rape plant response rating (rape; [9]): 0
6 | CC(C)N(C(=O)n1oc(=O)n(Cc2cccs2)c1=O)c1ccc(F)cc1 [Compound 80] | 2 | 4 |  | 7 | 7 | 7 | 3 |  | 4 |  | 3 | 4 | 5 | 3 | 2 | 3 | 3 | 4 | 5 | 2 | Redroot pigweed plant response rating (pigweed; [9]): 4; Sugarbeets plant response rating (sugar beet; [10]): 0; Sugarbeets plant response rating (sugar beet; [9]): 7; Rape plant response rating (rape; [10]): 0; Rape plant response rating (rape; [9]): 3
7 | CCN(CC)C(=O)n1oc(=O)n(-c2cccc3c2CCCC3)c1=O [Compound 89] | 0 |  |  | 0 | 0 | 0 |  | 0 |  |  | 0 | 0 | 0 |  | 0 | 0 | 0 | 0 | 0 |  | Redroot pigweed plant response rating (pigweed; [11]): 0; Redroot pigweed plant response rating (pigweed; [10]): 0; Plant response rating, Redroot pigweed (pigweed; [12]): 0; Redroot pigweed plant response rating (pigweed; [9]): 5; Sugarbeets plant response rating (sugar beet; [11]): 0; Sugarbeets plant response rating (sugar beet; [10]): 0; Plant response rating, Sugarbeets (sugar beet; [12]): 0; Sugarbeets plant response rating (sugar beet; [9]): 6; Rape plant response rating (rape; [11]): 0; Rape plant response rating (rape; [10]): 0; Rape plant response rating (rape; [9]): 0
